Positions of bridges follow the written chain, without caps; N, C: chain ends. Non-standard residues stand in square brackets, D forms with d. Residues, ends and D or L forms follow the SMILES beside them. 1Nal = N[C@@H](Cc1cccc2ccccc12)C(=O)O; 2Nal = N[C@@H](Cc1ccc2ccccc2c1)C(=O)O

The target in one assay is T1, hVEGF-A (8-109) (Homo sapiens, UniProt P15692).
T1 sequence (P15692 214-315): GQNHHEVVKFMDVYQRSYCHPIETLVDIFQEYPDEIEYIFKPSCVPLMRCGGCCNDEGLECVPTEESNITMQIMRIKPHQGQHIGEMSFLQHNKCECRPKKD
Description: Phage competition ELISA. Format: binding. The note with it: phage competition ELISA, FIG. 15. For orientation: An ELISA detects its analyte on a solid surface through an enzyme-linked reagent.

The next assay has as its target T2, hVEGF-A (Homo sapiens, UniProt P15692).
T2 sequence (P15692 207-395): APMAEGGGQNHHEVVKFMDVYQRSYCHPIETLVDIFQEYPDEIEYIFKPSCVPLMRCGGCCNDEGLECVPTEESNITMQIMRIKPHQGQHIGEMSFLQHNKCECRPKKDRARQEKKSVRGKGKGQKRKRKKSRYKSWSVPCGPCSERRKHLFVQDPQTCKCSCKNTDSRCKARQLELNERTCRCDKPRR
Description: KDR-CHO VEGF assay to determine cellular IC50 (VEGF mediated Tyr phosphorylation of KDR). Format: cell-based. As for the experimental part: KDR-CHO cells (CHO cells stably transfected with gD tagged-KDR) were grown in cell growth medium (DMEM/Ham's F-12, 10% diafiltered FBS (GIBCO catalog no. 26400), 25 mM HEPES, 2 mM L-GLUTAMAX™). For VEGF stimulation assay, 5×10^4 cells/well were plated in 100 μl of cell plating medium (DMEM/Ham's F-12, 0.2% BSA, 0.25% diafiltered FBS, 25 mM HEPES, 2 mM L-GLUTAMAX™) in 96-well tissue culture plate and incubated at 37° C. overnight. The medium was replaced with 100 I1 of serum-free cell stimulation medium (DMEM/Ham's F-12, 0.5% BSA, 25 mM HEPES) and cells were incubated at 37° C. for 2 hr. One hour before stimulation, the medium was replaced with 50 I1 of serum-free cell stimulation medium. Concurrently, VEGF (50 ng/ml for hVEGF, 100 ng/ml for mVEGF and rVEGF) was pre-incubated with titrated amount of CKP or anti-VEGF in 50 μl of serum-free cell stimulation medium at 37° C. for 1 hour and added to the cells. The cells were stimulated for 15 min at 37 C and the medium is removed. The cells were lysed with 130 I1 of ice-cold cell lysis buffer (150 mM NaCl, 50 mM HEPES, 0.5% Triton-X 100, HALT protease and phosphatase inhibitor cocktail (ThermoFisher Scientific, Inc. catalog no. 78444), 5 mM EDTA). VEGF mediated Tyr phosphorylation of KDR was determined by ELISA-based assay. Briefly, MAXISORP™ 96 well plates (ThermoFisher Scientific, Inc. catalog no. 439454) were coated with 100 I1 of anti-gD antibody diluted in PBS (1 μg/ml) at 4° C. overnight and washed three times with washing buffer (PBS, 0.05% TWEEN®20, pH 7.4). The plates were blocked with 300 I1 of blocking buffer (PBS, 0.5% BSA) at room temperature for 1 hour followed by washing three times with washing buffer. The above KDR-CHO cell lysate (100 μl) was added to each well and incubated at room temperature for 2 hours. The plates were washed four times with washing buffer followed by incubation with 100 I1 of 0.5 μg/ml biotin-conjugated anti-phosphotyrosine (clone 4G10, Millipore catalog no. 16-103) in blocking buffer at room temperature for 2 hours. After washing four times, the plates were incubated with 100 I1 of HRP-conjugated streptavidin in blocking buffer at room temperature for 30 min. After washing four times, the plates were developed with 100 I1 of TMB substrate (BD Biosciences) at room temperature for 20-30 min and stopped by addition of 50 μl of H2SO4 solution. The optical density of each well was determined using a microplate reader set to 450 nm.

With “9.54-28: C-terminal two-residue extension variant based on 9.54 (Table 39) (GCNIMLPFWGCKQDFDCLAGCICQYYQSCGFH)”, the “improvement of binding affinity for hVEGF-A (8-109) compared to parent clone” value with hVEGF-A (8-109) was “approximately 10 fold”.

Take `CC[C@H](C)[C@H](NC(=O)[C@@H]1CSSC[C@H](NC(=O)CN)C(=O)N[C@@H](CC(N)=O)C(=O)N[C@@H]([C@@H](C)CC)C(=O)N[C@@H](CCSC)C(=O)N[C@@H](CC(C)C)C(=O)N2CCC[C@H]2C(=O)N[C@@H](Cc2ccccc2)C(=O)N[C@@H](Cc2c[nH]c3ccccc23)C(=O)NCC(=O)N[C@H]2CSSC[C@H](NC(=O)[C@H](CCC(=O)O)NC(=O)[C@H](Cc3ccccc3)NC(=O)[C@H](CC(=O)O)NC(=O)[C@H](CCCNC(=N)N)NC(=O)CNC2=O)C(=O)N[C@@H](CCSC)C(=O)N[C@@H](CCC(=O)O)C(=O)N[C@@H](CCC(N)=O)C(=O)N1)C(=O)N[C@H]1CSSC[C@@H](C(=O)NCC(=O)O)NC(=O)[C@H](CO)NC(=O)[C@H](CCC(N)=O)NC(=O)[C@H](Cc2ccc(O)cc2)NC(=O)[C@H](Cc2ccc(O)cc2)NC(=O)[C@H](CCC(N)=O)NC1=O` [9.54.90.67] (H-GCNIMLPFWGCGRDFECMEQCICQYYQSCG-OH; disulfide 2-21, 11-17, 23-29; N-terminus and C-terminus assumed): the “FOLD IMPROVEMENT RELATIVE TO VARIANT 9.54.90” value at hVEGF-A (Table 36, from cellular IC50) was determined as 1.23; on hVEGF-A (Table 38, from cellular IC50), 1.23.

Regarding `CC[C@H](C)[C@@H]1NC(=O)[C@H](CC(N)=O)NC(=O)[C@@H](N)CSSC[C@@H](C(=O)N[C@H](C(=O)N[C@H]2CSSC[C@@H](C(=O)O)NC(=O)[C@H](CO)NC(=O)[C@H](CCC(N)=O)NC(=O)[C@H](Cc3ccc(O)cc3)NC(=O)[C@H](Cc3ccc(O)cc3)NC(=O)[C@H](CCC(N)=O)NC2=O)C(C)C)NC(=O)CNC(=O)[C@H](C)NC(=O)[C@H](CC(C)C)NC(=O)[C@@H]2CSSC[C@H](NC(=O)CNC(=O)[C@H](Cc3c[nH]c4ccccc34)NC(=O)[C@H](Cc3ccc(O)cc3)NC(=O)[C@@H]3CCCN3C(=O)[C@H](CC(C)C)NC(=O)[C@H](CCSC)NC1=O)C(=O)NCC(=O)N[C@@H](CCCNC(=N)N)C(=O)N[C@@H](CC(=O)O)C(=O)N[C@@H](Cc1ccccc1)C(=O)N[C@@H](CCC(=O)O)C(=O)N2` [9.54.90.F7Y.Δ2G] (H-CNIMLPYWGCGRDFECLAGCVCQYYQSC-OH; disulfide 1-20, 10-16, 22-28; N-terminus and C-terminus assumed), the “FOLD IMPROVEMENT RELATIVE TO VARIANT 9.54.90” value on hVEGF-A (Table 38, from cellular IC50) came out at 0.44.

As for `CC[C@H](C)[C@@H]1NC(=O)[C@H](CC(N)=O)NC(=O)[C@@H](NC(=O)CN)CSSC[C@@H](C(=O)N[C@H](C(=O)N[C@H]2CSSC[C@@H](C(=O)NCC(=O)O)NC(=O)[C@H](CO)NC(=O)[C@H](CCC(N)=O)NC(=O)[C@H](Cc3ccc(O)cc3)NC(=O)[C@H](Cc3ccc(O)cc3)NC(=O)[C@H](CCC(N)=O)NC2=O)C(C)C)NC(=O)CNC(=O)[C@H](C)NC(=O)[C@H](CC(C)C)NC(=O)[C@@H]2CSSC[C@H](NC(=O)CNC(=O)[C@H](Cc3c[nH]c4ccccc34)NC(=O)[C@H](Cc3ccc(O)cc3)NC(=O)[C@@H]3CCCN3C(=O)[C@H](CC(C)C)NC(=O)[C@H](CCSC)NC1=O)C(=O)NCC(=O)N[C@@H](CCCNC(=N)N)C(=O)N[C@@H](CC(=O)O)C(=O)N[C@@H](Cc1ccccc1)C(=O)N[C@@H](CCC(=O)O)C(=O)N2` [9.54.90.F8Y] (H-GCNIMLPYWGCGRDFECLAGCVCQYYQSCG-OH; disulfide 2-21, 11-17, 23-29; N-terminus and C-terminus assumed), the “FOLD IMPROVEMENT RELATIVE TO VARIANT 9.54.90” value on hVEGF-A (Table 38, from cellular IC50) is on record as 0.85.

Regarding `CCCC[C@@H]1NC(=O)[C@H]([C@@H](C)CC)NC(=O)[C@H](CC(N)=O)NC(=O)[C@@H](NC(=O)CN)CSSC[C@@H](C(=O)N[C@H](C(=O)N[C@H]2CSSC[C@@H](C(=O)NCC(=O)O)NC(=O)[C@H](CO)NC(=O)[C@H](CCC(N)=O)NC(=O)[C@H](Cc3ccc(O)cc3)NC(=O)[C@H](Cc3ccc(O)cc3)NC(=O)[C@H](CCC(N)=O)NC2=O)C(C)C)NC(=O)CNC(=O)[C@H](C)NC(=O)[C@H](CC(C)C)NC(=O)[C@@H]2CSSC[C@H](NC(=O)CNC(=O)[C@H](Cc3c[nH]c4ccccc34)NC(=O)[C@H](Cc3ccccc3)NC(=O)[C@@H]3CCCN3C(=O)[C@H](CC(C)C)NC1=O)C(=O)NCC(=O)N[C@@H](CCCNC(=N)N)C(=O)N[C@@H](CC(=O)O)C(=O)N[C@@H](Cc1ccccc1)C(=O)N[C@@H](CCC(=O)O)C(=O)N2` [9.54.90.M5.Nle], the “FOLD IMPROVEMENT RELATIVE TO VARIANT 9.54.90” value on hVEGF-A (Table 38, from cellular IC50) is listed as 0.69.

For the compound `CC[C@H](C)[C@@H]1NC(=O)[C@H](CC(N)=O)NC(=O)[C@@H](NC(=O)CN)CSSC[C@@H](C(=O)N[C@H](C(=O)N[C@H]2CSSC[C@@H](C(=O)NCC(=O)O)NC(=O)[C@H](CO)NC(=O)[C@H](CCC(N)=O)NC(=O)[C@H](Cc3ccc(O)cc3)NC(=O)[C@H](Cc3ccc(O)cc3)NC(=O)[C@H](CCC(N)=O)NC2=O)C(C)C)NC(=O)CNC(=O)[C@H](C)NC(=O)[C@H](CC(C)C)NC(=O)[C@@H]2CSSC[C@H](NC(=O)CNC(=O)[C@H](Cc3cccc4ccccc34)NC(=O)[C@H](Cc3ccccc3)NC(=O)[C@@H]3CCCN3C(=O)[C@H](CC(C)C)NC(=O)[C@H](CCSC)NC1=O)C(=O)NCC(=O)N[C@@H](CCCNC(=N)N)C(=O)N[C@@H](CC(=O)O)C(=O)N[C@@H](Cc1ccccc1)C(=O)N[C@@H](CCC(=O)O)C(=O)N2` [9.54.90.Naph1] (H-GCNIMLPF[1Nal]GCGRDFECLAGCVCQYYQSCG-OH; disulfide 2-21, 11-17, 23-29; N-terminus and C-terminus assumed), on hVEGF-A (Table 38, from cellular IC50), the “FOLD IMPROVEMENT RELATIVE TO VARIANT 9.54.90” value is 0.24.

On to `CC[C@H](C)[C@@H]1NC(=O)[C@H](CC(N)=O)NC(=O)[C@@H](NC(=O)CN)CSSC[C@@H](C(=O)N[C@H](C(=O)N[C@H]2CSSC[C@@H](C(=O)NCC(=O)O)NC(=O)[C@H](CO)NC(=O)[C@H](CCC(N)=O)NC(=O)[C@H](Cc3ccc(O)cc3)NC(=O)[C@H](Cc3ccc(O)cc3)NC(=O)[C@H](CCC(N)=O)NC2=O)C(C)C)NC(=O)CNC(=O)[C@H](C)NC(=O)[C@H](CC(C)C)NC(=O)[C@@H]2CSSC[C@H](NC(=O)CNC(=O)[C@H](Cc3ccc4ccccc4c3)NC(=O)[C@H](Cc3ccccc3)NC(=O)[C@@H]3CCCN3C(=O)[C@H](CC(C)C)NC(=O)[C@H](CCSC)NC1=O)C(=O)NCC(=O)N[C@@H](CCCNC(=N)N)C(=O)N[C@@H](CC(=O)O)C(=O)N[C@@H](Cc1ccccc1)C(=O)N[C@@H](CCC(=O)O)C(=O)N2` [9.54.90.Naph2] (H-GCNIMLPF[2Nal]GCGRDFECLAGCVCQYYQSCG-OH; disulfide 2-21, 11-17, 23-29; N-terminus and C-terminus assumed), for which the “FOLD IMPROVEMENT RELATIVE TO VARIANT 9.54.90” value on hVEGF-A (Table 38, from cellular IC50) stood at 0.08.

Consider `CC[C@H](C)[C@H](NC(=O)[C@@H]1CSSC[C@H](NC(=O)CN)C(=O)N[C@@H](CC(=O)O)C(=O)N[C@@H](C(C)C)C(=O)N[C@@H](CCSC)C(=O)N[C@@H](CCC(N)=O)C(=O)N2CCC[C@H]2C(=O)N[C@@H](Cc2ccc(O)cc2)C(=O)N[C@@H](Cc2c[nH]c3ccccc23)C(=O)NCC(=O)N[C@H]2CSSC[C@H](NC(=O)[C@H](CC(=O)O)NC(=O)[C@H]([C@@H](C)CC)NC(=O)[C@H](CC(=O)O)NC(=O)[C@@H]3CCCN3C(=O)CNC2=O)C(=O)N[C@@H](CC(C)C)C(=O)N[C@@H](CO)C(=O)N[C@@H](CC(N)=O)C(=O)N1)C(=O)N[C@H]1CSSC[C@@H](C(=O)NCC(=O)O)NC(=O)[C@H](CO)NC(=O)[C@H](CC(N)=O)NC(=O)[C@H](Cc2ccc(O)cc2)NC(=O)[C@H](Cc2c[nH]c3ccccc23)NC(=O)[C@H](Cc2c[nH]cn2)NC1=O` [9.63.12.12] (H-GCDVMQPYWGCGPDIDCLSNCICHWYNSCG-OH; disulfide 2-21, 11-17, 23-29; N-terminus and C-terminus assumed), for which the “FOLD IMPROVEMENT RELATIVE TO VARIANT 9.54.90” value on hVEGF-A (Table 36, from cellular IC50) came out at 2.41.

With “CNIMLPYWGCGRDFECLAGCVCQYYQSC [VEGF_CKP9.54.90 F7Y A2G]”, in the assay with hVEGF-A (Table 38), the “cellular potency relative to VEGF_CKP9.54.90” value is reported as “slight reduction of cellular potency”.

For the compound “GCNIMLPFWGCGQSFECLAGCICQYYQSCGGS [9.54.1-63]”, the “improvement of binding affinity for hVEGF-A (8-109) compared to parent clone” value with hVEGF-A (8-109) is “approximately 10 fold”.

(Values after patent publication US11155586B2, “Cystine knot scaffold platform” (Genentech, Inc., priority 2015, dated 2021).)
